# Test results: the supplement of paper PMC10307832
# Tests used:
# Experiment in all cases: relative viability (nuclei count vs DMSO), 5 days (fraction); higher = more cells survive
# [1] = compound: N#CC1(c2ccc(NC(=O)c3cccnc3NCc3ccncc3)cc2)CCCC1 [Apatinib] + CC1(C)CCC(c2ccc(Cl)cc2)=C(CN2CCN(c3ccc(C(=O)NS(=O)(=O)c4ccc(N[C@H](CCN5CCOCC5)CSc5ccccc5)c(S(=O)(=O)C(F)(F)F)c4)cc3)CC2)C1 [Navitoclax] (partner 0.5 µM)
# How it was run: (§1)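 Lung cancer cell lines, seeded in 1536-well plates, were treated the following day by pin tool with a single drug or with five library-drug doses (not always all listed) in √10 steps on top of a fixed anchor-drug dose. Cells were fixed and nuclei stained in one step after 5 days, and nuclei were counted. Relative viability is the nuclei count for treated wells divided by that for vehicle wells, reported as medians of duplicate plates.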
# [2] = compound: N#CC1(c2ccc(NC(=O)c3cccnc3NCc3ccncc3)cc2)CCCC1 [Apatinib] + Nc1ncn([C@H]2C[C@H](O)[C@@H](CO)O2)c(=O)n1 [Decitabine] (partner 2 µM)
# How it was run: as §1
# [3] = compound: CN(C)C(=N)NC(=N)N [Metformin] + Nc1ncn([C@H]2C[C@H](O)[C@@H](CO)O2)c(=O)n1 [Decitabine] (partner 2 µM)
# How it was run: as §1
# [4] = compound: CN(C)C(=N)NC(=N)N [Metformin] + COc1cc2c(Oc3ccc(NC(=O)C4(C(=O)Nc5ccc(F)cc5)CC4)cc3F)ccnc2cc1OCCCN1CCOCC1 [Foretinib] (partner 0.25 µM)
# How it was run: as §1
Cell Line,relative viability ([1]; first compound 0.08 µM),relative viability ([1]; first compound 0.253 µM),relative viability ([1]; first compound 0.8 µM),relative viability ([1]; first compound 2.53 µM),relative viability ([1]; first compound 8 µM),relative viability ([2]; first compound 0.08 µM),relative viability ([2]; first compound 0.253 µM),relative viability ([2]; first compound 0.8 µM),relative viability ([2]; first compound 2.53 µM),relative viability ([2]; first compound 8 µM),relative viability ([3]; first compound 10 µM),relative viability ([3]; first compound 31.62 µM),relative viability ([3]; first compound 100 µM),relative viability ([3]; first compound 316.23 µM),relative viability ([3]; first compound 1000 µM),relative viability ([4]; first compound 10 µM),relative viability ([4]; first compound 31.62 µM),relative viability ([4]; first compound 100 µM),relative viability ([4]; first compound 316.23 µM),relative viability ([4]; first compound 1000 µM)
NCI-H3122,1.07,0.965,1.01,1.08,1.04,0.505,0.431,0.44,0.495,0.433,0.343,0.371,0.361,0.359,0.369,0.946,0.951,0.944,0.806,0.919
PC-3 [JPC-3],0.785,0.764,0.746,0.816,0.737,–,0.869,0.763,0.908,1.04,0.786,0.848,–,0.841,0.732,0.808,0.945,0.996,0.93,0.946
PC-14,1.04,0.968,0.967,0.986,0.937,0.28,0.293,0.189,0.228,0.28,0.27,0.291,0.186,0.211,0.235,0.795,1.08,0.879,0.932,1
RERF-LC-KJ,0.931,1.04,0.874,0.557,0.997,0.755,0.7,0.637,0.66,0.746,0.687,0.703,0.505,0.556,0.514,0.775,0.796,0.804,0.763,0.935
SK-LU-1,0.965,1.35,0.705,0.638,0.631,0.724,0.782,0.671,0.667,0.675,0.567,0.571,0.64,0.507,0.615,0.807,0.77,0.769,0.69,0.79
SK-MES-1,1.25,1.17,1.24,1.14,0.965,0.404,0.36,0.488,0.975,0.903,0.336,0.291,0.342,0.34,0.361,0.915,0.888,0.874,0.912,1.18
SW 1573,1.01,1,1.19,0.927,0.885,0.77,0.615,0.593,0.513,0.603,0.508,0.637,0.44,0.431,0.421,0.955,1.04,0.914,0.788,1.1
UMC-11,0.343,0.335,0.319,0.247,0.266,0.711,0.64,0.575,0.714,0.629,0.573,0.743,0.741,0.49,0.437,1.14,1.09,1.05,1.1,1.07
